Experimental data taken from patent US20260373101A1, “POLYAMINATED FATTY ACIDS FOR USE AS POTENTIATORS OF ANTIBACTERIAL ACTIVITY” (priority 2023, published 2026).
Converted amounts (≈) assume the structure as drawn.

Columns and labels:
Format in all cases: cell-based
[1] = tested on: P. aeruginosa PA0509; assay: Potentiation of known antibiotics (MIC of antibiotic alone or with PAFA); settings: Pseudomonas aeruginosa, PA0509, 24 h
Procedure: (§1) 100 μl of a liquid culture medium is deposited in each well of a 96-well microplate, and then inoculated with the bacterial suspension of example 2.1 prepared for the positive control. The volume needed to inoculate is calculated for an OD of 0.01 which corresponds to approximately 5,106 bacteria in each well. In this plate, the first row corresponds to a negative control (200 μl of sterile culture medium in each well), the second row to a positive control (100 μl of sterile culture medium with 100 μl of the bacterial suspension), the third row contains 192 μl of culture medium and 8 μl of an antibiotic solution (10 mg/ml) to be tested in each well. Subsequently, a cascade dilution is performed from this line. Next, 10 μl of a fatty acid solution (10 μM final concentration) is added to each well of the lines. Then, 90 μl of bacterial suspension is added to lines 3 to 8. The MIC of the antibiotic tested is determined after 24 hours of incubation at 37 °C in a humid atmosphere.
(§2) The table 3 below reports the antibacterial activity (MIC in μg/mL) of a combination of some polyaminated fatty acids prepared in example 1 with various antibacterial drugs: doxycycline (DOX), tetracycline (TET), oxytetracycline (OXY) and minocycline (MINO), against various bacterial strains of P. aeruginosa (PA01, PA0509, and PA263), and of E. coli (AG-100 and AG-100A).

[2] = tested on: E. coli AG-100; assay: as above; settings: Escherichia coli, AG100, 24 h
Procedure: as §1, §2

[3] = tested on: P. aeruginosa PA263; assay: as above; settings: for MIC: Pseudomonas aeruginosa, PA263, 24 h, 24 h
Procedure: as §1, §2

[4] = tested on: E. coli AG-100A; assay: as above; settings: Escherichia coli, AG100A, 24 h
Procedure: as §1, §2

[5] = tested on: P. aeruginosa PA01; assay: as above; settings: Pseudomonas aeruginosa, PA01, 24 h
Procedure: as §1, §2

[6] = tested on: E. coli ATCC28922; assay: Intrinsic antibacterial activity, standard microdilution (CLSI); settings: Escherichia coli, ATCC28922, 24 h
[7] = tested on: Chinese hamster ovary cells (CHO-K1); assay: Toxicity on mammalian cells, WST1 assay; settings: Cricetulus griseus; CHO-K1 cell viability, WST1, 24 h
Procedure: The WST1 assay was used to measure the cytotoxic activity of the polyaminated fatty acid compounds. It is a colorimetric assay that measures viability and cell proliferation rate. It is based on the cleavage of colorless tetrazolium salts WST-1 (4-[3-(4-iodophenyl)-2-(4-nitrophenyl)-2H-5-tetrazolio]-1,3-benzene disulfonate) by mitochondrial dehydrogenases into yellow formazan derivative, quantifiable by spectrophotometry at 420-480 nm.
The WST1 assay was performed on Chinese hamster ovary cells. CHO-K1 cells (ATCC, USA) were maintained in culture in “Mac Coy's 5A” medium supplemented with 10% fetal calf serum, 2 mM L-glutamine and streptomycin penicillin mixture (100 U/ml: 10 μg/ml). Incubation is carried out at 37 °C under CO2 enriched atmosphere (5% by volume) and subcultured every two days.
Cells are transferred to 96-well plates (25,000 cells/ml) in complete “Mac Coy's 5A medium”, and maintained for 24 h at 37 °C under a humid CO2-enriched atmosphere (5% by volume). Increasing concentrations of given polyaminated fatty acid compounds are added to the wells in duplicate assays and 8 growth controls containing cells in medium alone are included in each assay run. After 24 hours at 37 °C (5% CO2), the culture medium is removed, the cells are rinsed in phosphate buffer (PBS) and 50 μL of PBS containing 10% WST1 reagent is added to each well. After 20 minutes of incubation at 37 °C, the results are read by spectrophotometry at 450 nm.
The results are expressed as dose-response relationships, modeled by a non-linear regression analysis using TableCurve software. The 50% Inhibitory Concentration (IC50) represents the concentration of polyaminated fatty acid compound capable of reducing cell viability by 50%.

[8] = tested on: P. aeruginosa ATCC27853; assay: Intrinsic antibacterial activity, standard microdilution (CLSI); settings: Pseudomonas aeruginosa; P. aeruginosa ATCC27853, compound alone, 24 h, 37 °C
Procedure: (§3) The bacterial strains used in the examples below are the reference strains P. aeruginosa ATCC27853, E. coli ATCC25922, K. pneumoniae ATCC51296, S. aureus ATCC25923 and E. faecalis ATCC29212. The bacterial strains were previously stored in 15% (v/v) glycerol at −80 °C for cryoprotection. One colony of the fresh culture of each strain was incubated in a culture tube containing 3 ml of Mueller-Hinton broth (MH2) at 37 °C overnight with agitation. This suspension was used for inoculum preparation.
(§4) The antibacterial activity of said polyaminated fatty acid compounds was measured using a standard microdilution test based on Clinical and Laboratory Standards Institute (CLSI) guidelines. This method was slightly modified by increasing the assay volumes to 200 μl so as to improve reproducibility.
(§5) A negative control which corresponds to 2 ml of sterile culture medium and a positive control which corresponds to a mixture of 1980 μl of culture medium and 20 μl of bacterial suspension from a thawed biological strain (biological strains are stored at −80 °C in glycerol) were prepared.
(§6) The tubes were incubated in an incubator shaker “Infors” at 37 °C for 24 hours at 100 round per minute (rpm).
(§7) The polyaminated fatty acid compounds to be tested were prepared in water at a concentration of 10 mM.
(§8) The required volume of the microbial suspension to be inoculated was calculated for an optical density (OD) measured corresponding to a value equal to 0.01 in each well by using a spectrophotometer at 600 nm. In the microplate, the first row corresponded to the negative control (200 μl of sterile culture medium in each well), the second row to the positive control (seeded culture medium), the third row was loaded twice with bacterial suspension and with 8 μl of a given polyaminated fatty acid compound in each well. Subsequently, a half-fold cascade dilution was performed from this line. The first column was used as an inhibition control. A sterile filter was then placed on the microplate allowing the passage of gases but not contaminants. The microplate was incubated at 37 °C in a humid atmosphere for 24 hours. After 24 hours of incubation, an optical density measurement was performed by taking 100 μl of the bacterial suspension diluted in 900 μl of sterile culture medium.
(§9) The medium used was Mueller-Hinton medium (MH) for bacteria. All tests were performed in duplicate.
(§10) Table 1 below reports the intrinsic antibacterial activity of some polymaminated fatty acids prepared in example 1 (MIC in μM) as well as their toxicity towards eucaryotic cells (IC50 in μM).

[9] = tested on: S. aureus ATCC25923; assay: as above; settings: Staphylococcus aureus; S. aureus ATCC25923, compound alone, 24 h, 37 °C
Procedure: as §3, §4, §5, §6, §7, §8, §9, §10

[10] = MIC of antibiotic, PA0509, +PAFA10 (10 μM), 24 h
[11] = MIC of antibiotic, PA0509, +PAFA11 (10 μM), 24 h
[12] = MIC of antibiotic, PA0509, +PAFA14 (10 μM), 24 h
[13] = MIC of antibiotic, AG-100, +PAFA10 (10 μM)
[14] = MIC of antibiotic, AG-100, +PAFA11 (10 μM)
[15] = MIC of antibiotic, AG-100, +PAFA14 (10 μM)
[16] = MIC of antibiotic, PA263, +PAFA10 (10 μM)
[17] = MIC of antibiotic, PA263, +PAFA11 (10 μM)
[18] = MIC of antibiotic, PA263, +PAFA14 (10 μM)
[19] = MIC of antibiotic, +PAFA10 (10 μM)
[20] = MIC of antibiotic, +PAFA11 (10 μM)
[21] = MIC of antibiotic, +PAFA14 (10 μM)
[22] = MIC of antibiotic, PA01, +PAFA10 (10 μM)
[23] = MIC of antibiotic, PA01, +PAFA11 (10 μM)
[24] = MIC of antibiotic, PA01, +PAFA14 (10 μM)

Row | Compound | MIC [1] | MIC [1, 10] | MIC [1, 11] | MIC [1, 12] | MIC ([2]; AG-100, Antibiotic alone) | MIC [2, 13] | MIC [2, 14] | MIC [2, 15] | fold reduction in MIC (MIC alone / MIC with PAFA) ([3]; PA263, +PAFA11 (10 μM)) | MIC [3, 16] | MIC [3, 17] | MIC [3, 18] | MIC ([3]; PA263, Antibiotic alone) | MIC ([4]; Antibiotic alone) | MIC [4, 19] | MIC [4, 20] | MIC [6] | IC50 [7] | MIC [8] | MIC [9] | further results
1 | CN(C)c1ccc(O)c2c1C[C@H]1C[C@H]3[C@H](N(C)C)C(O)=C(C(N)=O)C(=O)[C@@]3(O)C(O)=C1C2=O [MINO, minocycline] | 1 µg/mL | 0.5 µg/mL | 0.5 µg/mL | 0.063 µg/mL | 1 µg/mL | 0.13 µg/mL | 0.13 µg/mL | 0.004 µg/mL | 2 | 4 µg/mL | 8 µg/mL | 2 µg/mL | 16 µg/mL | 0.25 µg/mL | 0.25 µg/mL | 0.25 µg/mL | – | – | – | – | MIC [4, 21]: 0.004 µg/mL; MIC [5, 22]: 2 µg/mL; MIC [5, 23]: 4 µg/mL; MIC [5, 24]: 0.5 µg/mL; MIC ([5]; PA01, Antibiotic alone): 16 µg/mL
2 | CN(C)[C@@H]1C(O)=C(C(N)=O)C(=O)[C@@]2(O)C(O)=C3C(=O)c4c(O)cccc4[C@@](C)(O)[C@H]3[C@H](O)[C@@H]12 [OXY, oxytetracycline] | 1 µg/mL | 0.25 µg/mL | 0.5 µg/mL | 0.063 µg/mL | 1 µg/mL | 1 µg/mL | 0.13 µg/mL | 0.008 µg/mL | 2 | 8 µg/mL | 16 µg/mL | 4 µg/mL | 32 µg/mL | 1 µg/mL | 1 µg/mL | 1 µg/mL | – | – | – | – | MIC [4, 21]: 0.008 µg/mL; MIC [5, 22]: 8 µg/mL; MIC [5, 23]: 8 µg/mL; MIC [5, 24]: 2 µg/mL; MIC ([5]; PA01, Antibiotic alone): 32 µg/mL
3 | CCCCCCCC/C=C\CCCCCCCC(=O)NCCCNCCCCNCCCN [PAFA1] | – | – | – | – | – | – | – | – | – | – | – | – | – | – | – | – | > 200 µM | 152 µM | > 200 µM | > 200 µM | –
4 | CCCCCCCCCCCCCCCC(=O)NCCCNCCCN [PAFA3] | – | – | – | – | – | – | – | – | – | – | – | – | – | – | – | – | 200 µM (≈ 73.9 µg/mL) | 56 µM | > 200 µM | > 200 µM | –
5 | CCCCCCCCCCCCCCCC(=O)NCCCNCCCCNCCCN [PAFA4] | – | – | – | – | – | – | – | – | – | – | – | – | – | – | – | – | > 200 µM | 268 µM | > 200 µM | > 200 µM | –
6 | CCCCC/C=C\C/C=C\CCCCCCCC(=O)NCCCN [PAFA7] | – | – | – | – | – | – | – | – | – | – | – | – | – | – | – | – | 100 µM (≈ 33.7 µg/mL) | 168 µM | > 200 µM | 50 µM (≈ 16.8 µg/mL) | –
7 | CCCCC/C=C\C/C=C\CCCCCCCC(=O)NCCCNCCCNCCCN [PAFA13] | – | – | – | – | – | – | – | – | – | – | – | – | – | – | – | – | 100 µM (≈ 45.1 µg/mL) | 465 µM | 200 µM (≈ 90.2 µg/mL) | 50 µM (≈ 22.5 µg/mL) | –
8 | CN(C)[C@@H]1C(O)=C(C(N)=O)C(=O)[C@@]2(O)C(O)=C3C(=O)c4c(O)cccc4[C@@](C)(O)[C@H]3C[C@@H]12 [TET, tetracycline] | 1 µg/mL | 0.5 µg/mL | 0.25 µg/mL | 0.125 µg/mL | 1 µg/mL | 0.5 µg/mL | 0.25 µg/mL | 0.008 µg/mL | 2 | 8 µg/mL | 16 µg/mL | 4 µg/mL | 32 µg/mL | 1 µg/mL | 0.5 µg/mL | 0.5 µg/mL | – | – | – | – | MIC [4, 21]: 0.008 µg/mL; MIC [5, 22]: 8 µg/mL; MIC [5, 23]: 8 µg/mL; MIC [5, 24]: 2 µg/mL; MIC ([5]; PA01, Antibiotic alone): 32 µg/mL
